Measurements reported in the supplement of paper PMC13380429.

What was measured:
Conditions in all cases: 72 h
U2OS [1] = assay: cell viability relative to DMSO; higher = less toxic
Vero E6 [2] = assay: as above
HepG2 [3] = assay: as above
Caco-2 [4] = assay: as above
Calu-3 [5] = assay: as above
U2OS [6] = assay: relative viability EC50 (midpoint between 100% and the lowest measured viability); higher = less toxic
Vero E6 [7] = assay: as above
HepG2 [8] = assay: as above
Caco-2 [9] = assay: as above
Calu-3 [10] = assay: as above
U2OS [11] = assay: drug sensitivity score (DSS) for viability; higher = more toxic; extreme values may be limits of the assay
Vero E6 [12] = assay: as above
HepG2 [13] = assay: as above
Caco-2 [14] = assay: as above
Calu-3 [15] = assay: as above

| SMILES | cell viability (U2OS [1]; 1 nM) [%] | cell viability (U2OS [1]; 10 nM) [%] | cell viability (U2OS [1]; 100 nM) [%] | cell viability (U2OS [1]; 1000 nM) [%] | cell viability (U2OS [1]; 10000 nM) [%] | cell viability (Vero E6 [2]; 1 nM) [%] | cell viability (Vero E6 [2]; 10 nM) [%] | cell viability (Vero E6 [2]; 100 nM) [%] | cell viability (Vero E6 [2]; 1000 nM) [%] | cell viability (Vero E6 [2]; 10000 nM) [%] | cell viability (HepG2 [3]; 1 nM) [%] | cell viability (HepG2 [3]; 10 nM) [%] | cell viability (HepG2 [3]; 100 nM) [%] | cell viability (HepG2 [3]; 1000 nM) [%] | cell viability (HepG2 [3]; 10000 nM) [%] | cell viability (Caco-2 [4]; 1 nM) [%] | cell viability (Caco-2 [4]; 10 nM) [%] | cell viability (Caco-2 [4]; 100 nM) [%] | cell viability (Caco-2 [4]; 1000 nM) [%] | cell viability (Caco-2 [4]; 10000 nM) [%] | cell viability (Calu-3 [5]; 1 nM) [%] | cell viability (Calu-3 [5]; 10 nM) [%] | cell viability (Calu-3 [5]; 100 nM) [%] | cell viability (Calu-3 [5]; 1000 nM) [%] | cell viability (Calu-3 [5]; 10000 nM) [%] | relative viability EC50 (U2OS [6]) [µM] | relative viability EC50 (Vero E6 [7]) [µM] | relative viability EC50 (HepG2 [8]) [µM] | relative viability EC50 (Caco-2 [9]) [µM] | relative viability EC50 (Calu-3 [10]) [µM] | drug sensitivity score (U2OS [11]) | drug sensitivity score (Vero E6 [12]) | drug sensitivity score (HepG2 [13]) | drug sensitivity score (Caco-2 [14]) | drug sensitivity score (Calu-3 [15]) |
| --- | --- | --- | --- | --- | --- | --- | --- | --- | --- | --- | --- | --- | --- | --- | --- | --- | --- | --- | --- | --- | --- | --- | --- | --- | --- | --- | --- | --- | --- | --- | --- | --- | --- | --- | --- |
| CC(C)(C)NCC(O)c1cc(O)cc(O)c1 (stereo not given) [TERBUTALINE HEMISULFATE] | 102 | 98.6 | 105 | 100 | 106 | 105 | 101 | 101 | 105 | 98.9 | 109 | 102 | 106 | 94.5 | 92.3 | 99 | 104 | 88.7 | 91.8 | 98.2 | 104 | 106 | 99.7 | 95 | 98.3 | > 10 | > 10 | > 10 | > 10 | > 10 | 0 | 0 | 0 | 0.6 | 0 |
| Nc1nc(NC2CC2)cc(-c2cccc(Cl)c2Cl)n1 [TH-588] | 96.3 | 99.2 | 105 | 97.9 | 98.6 | 100 | 104 | 98.1 | 101 | 89.6 | 95.4 | 97.1 | 102 | 101 | 95.4 | 92.1 | 91.1 | 96.4 | 93.7 | 96.8 | 95.5 | 94 | 101 | 104 | 98.5 | > 10 | > 10 | > 10 | > 10 | > 10 | 0 | 0 | 0 | 0 | 0 |
| CC(C)(C)C(=O)OCOP(=O)(COCCn1cnc2c(N)ncnc21)OCOC(=O)C(C)(C)C [adefovir-dipivoxil] | 96.2 | 101 | 97.8 | 102 | 75.5 | 101 | 106 | 107 | 99.7 | 89.3 | 106 | 93.8 | 101 | 49.1 | 25.2 | 93.7 | 87.6 | 87.5 | 95.4 | 75.6 | 92.9 | 97.6 | 106 | 95.5 | 47.6 | > 10 | > 10 | 0.741 | > 10 | 2.46 | 0.8 | 0 | 10.1 | 1.9 | 3.5 |
| CC(=O)[C@H]1CC[C@H]2[C@@H]3CC[C@H]4C[C@H](O)CC[C@]4(C)[C@H]3C(=O)C[C@]12C [alfaxalone] | 97.8 | 99.2 | 97.7 | 103 | 102 | 99.6 | 95.9 | 99.7 | 94.3 | 107 | 98.6 | 102 | 94.1 | 96.1 | 106 | 101 | 101 | 89.6 | 103 | 104 | 94.7 | 99.9 | 87.7 | 97.4 | 101 | > 10 | > 10 | > 10 | > 10 | > 10 | 0 | 0 | 0 | 0 | 0 |
| COc1cc(F)c(C(C)C)cc1-c1ccc(C(F)(F)F)cc1CN1C(=O)O[C@H](c2cc(C(F)(F)F)cc(C(F)(F)F)c2)[C@@H]1C [anacetrapib] | 96.6 | 100 | 101 | 99.8 | 97.7 | 108 | 107 | 97.6 | 102 | 93.2 | 108 | 103 | 98.2 | 92.6 | 98.8 | 98.1 | 90.8 | 100 | 96.1 | 93.8 | 97.7 | 97 | 108 | 93.6 | 102 | > 10 | > 10 | > 10 | > 10 | > 10 | 0 | 0 | 0 | 0 | 0 |
| CN(C)C(=N)NCCC[C@H](N)C(=O)O [asymmetrical-dimethylarginine] | 100 | 93.2 | 96.2 | 93.5 | 97 | 97.4 | 101 | 96.5 | 101 | 90.7 | 86.7 | 96.8 | 95.1 | 105 | 101 | 101 | 99.4 | 97.9 | 93.3 | 101 | 107 | 99.9 | 112 | 102 | 97.9 | > 10 | > 10 | > 10 | > 10 | > 10 | 0 | 0 | 0 | 0 | 0 |
| CNCC[C@@H](Oc1ccccc1C)c1ccccc1 [atomoxetine] | 106 | 97.5 | 101 | 94.8 | 101 | 106 | 106 | 102 | 106 | 99.1 | 87.3 | 98.5 | 100 | 104 | 93.5 | 99 | 96.8 | 98.3 | 97.8 | 92.8 | 106 | 104 | 98.7 | 86 | 96.3 | > 10 | > 10 | > 10 | > 10 | > 10 | 0 | 0 | 0 | 0 | 1.2 |
| CN1[C@@H]2CC[C@H]1C[C@@H](OC(=O)c1cc(Cl)cc(Cl)c1)C2 [bemesetron] | 98.7 | 96.7 | 101 | 98.7 | 99.7 | 98.2 | 103 | 95.8 | 99.5 | 104 | 98.7 | 101 | 91.3 | 107 | 106 | 104 | 97.8 | 103 | 94.9 | 82.2 | 86.5 | 87.7 | 94.5 | 94 | 95 | > 10 | > 10 | > 10 | > 10 | > 10 | 0 | 0 | 0 | 1 | 0 |
| O=C(Oc1cccc2cccnc12)c1ccccc1 [benzoxiquine] | 99.7 | 92.3 | 96.3 | 92.4 | 98.6 | 98.5 | 101 | 99.5 | 98.3 | 93.8 | 104 | 103 | 102 | 102 | 7 | 102 | 99.6 | 102 | 99.2 | 98.1 | 106 | 94.3 | 95.6 | 96 | 93.7 | > 10 | > 10 | 3.26 | > 10 | > 10 | 0 | 0 | 5.1 | 0 | 0 |
| COc1cc2c(cc1OC)[C@@]13CCN4CC5=CCO[C@H]6CC(=O)N2[C@H]1[C@H]6[C@H]5C[C@H]43 [brucine] | 96.8 | 101 | 101 | 96.5 | 96.9 | 106 | 92.3 | 95.2 | 99 | 98.9 | 109 | 103 | 90.2 | 83.6 | 96.9 | 104 | 89.9 | 112 | 106 | 91.7 | 110 | 101 | 91.4 | 98 | 97.1 | > 10 | > 10 | > 10 | > 10 | > 10 | 0 | 0 | 2.6 | 0 | 0 |
| CCCC(=O)Nc1ncnc2c1ncn2[C@@H]1O[C@@H]2COP(=O)(O)O[C@H]2[C@H]1OC(=O)CCC [bucladesine] | 105 | 94.8 | 103 | 97.2 | 100 | 98.5 | 104 | 97.8 | 104 | 95.2 | 101 | 101 | 93.9 | 99 | 96 | 110 | 101 | 107 | 93.3 | 91.9 | 100 | 92.9 | 92.9 | 94.3 | 108 | > 10 | > 10 | > 10 | > 10 | > 10 | 0 | 0 | 0 | 0 | 0 |
| CCCC[N+]1(C)[C@@H]2C[C@@H](OC(=O)[C@H](CO)c3ccccc3)C[C@H]1[C@@H]1O[C@@H]12 (stereo not given in full) [butylscopolamine-bromide] | 99.1 | 94.7 | 101 | 96.3 | 99.7 | 97.4 | 95.9 | 96.5 | 95.6 | 108 | 102 | 106 | 92.9 | 102 | 115 | 92.8 | 98.3 | 104 | 94.7 | 98.2 | 110 | 83.9 | 99.5 | 90.9 | 106 | > 10 | > 10 | > 10 | > 10 | > 10 | 0 | 0 | 0 | 0 | 0 |
| NC(=O)N1c2ccccc2C=Cc2ccccc21 [carbamazepine] | 101 | 97.2 | 101 | 96.4 | 104 | 106 | 98.4 | 98.8 | 95.1 | 95.7 | 107 | 110 | 88.9 | 98.6 | 101 | 104 | 96.9 | 98.5 | 97.2 | 102 | 91.2 | 91.9 | 90.3 | 98.4 | 98.9 | > 10 | > 10 | > 10 | > 10 | > 10 | 0 | 0 | 0 | 0 | 0 |
| CCOC(=O)n1ccn(C)c1=S [carbimazole] | 99.5 | 91 | 94.4 | 101 | 103 | 90.9 | 89.5 | 91.2 | 93.7 | 108 | 94.7 | 99.8 | 93.3 | 90.6 | 103 | 98 | 98.7 | 100 | 104 | 100 | 92.4 | 95.4 | 101 | 104 | 107 | > 10 | > 10 | > 10 | > 10 | > 10 | 0 | 0 | 0 | 0 | 0 |
